Data set [1] is described as follows: In vivo blood level release profile in dogs (plasma RIA). On the set-up: species or system dog. To be noted: gels at sufficient dosages. The method, then: Once a particular peptide salt is found to gel in any of the in vitro assays described above, an in vivo assay can be used to determine the suitability of that peptide salt for therapeutic use in animals or humans. A blood level release profile for a particular peptide salt can be determined by injecting the peptide salt into an animal, e.g., a Sprague Dawley rat or dog, and testing blood samples taken at specific time intervals, e.g., hourly intervals over 1 to 5 days, or 12 or 24 hour intervals over 5 to 45 days, for the concentration of the peptide. The suitability of a particular peptide gel, or a peptide/carrier gel, for therapeutic delivery of the peptide can thus be determined.
Specifically, animals are anaesthetized with pentobarbital (60 mg/kg i.p. for rats), and a jugular vein is cannulated for blood sampling. A test peptide semisolid suspension or solid composition (or standard solution for comparison purposes), e.g., of SOMATULINE™, is injected subcutaneously at a specific dosage, e.g., 1.0, 3.0, or 6.0 mg/kg of SOMATULINE™. […] The amount of peptide in the plasma samples is determined by a standard radioimmunoassay (RIA) technique that allows a direct measurement without extraction of the peptide from the rat plasma. […]

Data set [2] in a line: Solubility of the peptide salt in water. The class given is physicochemical. As to conditions: pH 7.0, 25° C. An excerpt:
As used herein, a "gelable peptide salt" is a peptide salt which will form a gel upon contact with bodily fluids. Whether a peptide salt is "gelable," and will have the desired biological properties, can be determined by testing the peptide salt in the in vitro and in vivo assays described below. The term "peptide" means a natural or synthetic molecule comprising two or more amino acids linked by the carboxyl group of one amino acid and the amino group of another. Thus, the term includes both polypeptides and proteins. A "soluble" peptide salt is one having a solubility of 0.1 mg/ml, and preferably 1.0 mg/ml, in water at a pH of 7.0 and a temperature of 25° C.
A solution of the peptide composition is undesirable, because such a solution, once injected, will disperse and not form the sustained-release gel of the invention. Thus, the amount of water is carefully selected to be less than that required to dissolve a specific amount of the peptide composition For example, at 25° C., pH 7.0, 1.0 ml or less of water is required when mixed with 26 mg of the acetate salt of SOMATULINE™ to avoid the formation of a solution. By using an amount of water that is less than 50 percent, and preferably less than 20 or 10 percent, of the amount of water required to dissolve a peptide salt, a semisolid or paste-like suspension, rather than a solution, is ensured.

The term solubility denotes the dissolved amount per volume that the medium holds.

For the compound `CC(C)[C@@H]1NC(=O)[C@H](CCCCN)NC(=O)[C@@H](Cc2c[nH]c3ccccc23)NC(=O)[C@H](Cc2ccc(O)cc2)NC(=O)[C@@H](NC(=O)[C@H](N)Cc2ccc3ccccc3c2)CSSC[C@@H](C(=O)N[C@H](C(N)=O)[C@@H](C)O)NC1=O` [SOMATULINE™], the “duration of sustained release of at least 1.0 ng/ml of the peptide in the blood” value in data set [1] was “over one month”. The solubility in data set [2] amounted to 26.0 mg/mL.
